Laboratory results reported in PubChem BioAssay (NCI).
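GI50: concentration for 50% inhibition of growth. TGI denotes the concentration required for complete inhibition of growth.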

Legend:
Test in all cases: NCI tumour cell line growth inhibition, 384-well format
[1] = test system: SF-539 CNS
[2] = test system: 786-0 renal
[3] = test system: NCI-H322M lung
[4] = test system: SK-MEL-5 melanoma
[5] = test system: UACC-257 melanoma
[6] = test system: SF-295 CNS
[7] = test system: TK-10 renal
[8] = test system: SNB-19 CNS
[9] = test system: IGROV1 ovarian
[10] = test system: HT29 colon
[11] = test system: LOX IMVI melanoma
[12] = test system: OVCAR-4 ovarian
[13] = test system: SK-MEL-2 melanoma

SMILES: CNC(=O)c1cc(Oc2ccc(NC(=O)Nc3ccc(Cl)c(C(F)(F)F)c3)cc2)ccn1
- GI50 [1]: 1690 nM
- TGI [1]: 3.54 µM
- GI50 [2]: 1890 nM
- TGI [2]: 3.7 µM
- GI50 [3]: 2610 nM
- TGI [3]: 5.16 µM
- GI50 [4]: 842 nM
- TGI [4]: 2440 nM
- GI50 [5]: 2320 nM
- TGI [5]: 4.62 µM
- GI50 [6]: 2070 nM
- TGI [6]: 4.2 µM
- GI50 [7]: 5.09 µM
- TGI [7]: 17.7 µM
- GI50 [8]: 3.33 µM
- TGI [8]: 8.1 µM
- GI50 [9]: 2460 nM
- TGI [9]: 5.91 µM
- GI50 [10]: 2350 nM
- TGI [10]: 5.96 µM
- GI50 [11]: 2190 nM
- TGI [11]: 4.56 µM
- GI50 [12]: 3.59 µM
- TGI [12]: 6.84 µM
- GI50 [13]: 2050 nM
- TGI [13]: 3.49 µM
